Measurements published in patent US20080182895A1 (priority 2006, published 2008).

Key:
[1] = system: 1b, BB7-C316Y replicon; assay: Replicon variant 3-day assay; format: cell-based, Hepatitis C virus; details: 1b
Protocol: (§1) pBB7-replicon variant DNAs were linearized with Sca I, and in vitro transcription was performed using Ambion's […]® T7 High Yield Transcription kit (Austin, Tex.). Purified RNA transcripts were electroporated into Huh-7 cells in quadruplicates using a Biorad GENE PULSER® Electroporation System (Setting: 270V, 950 μF) (Hercules, Calif.). Stably transfected replicon variant cell lines were initially selected with 0.25 mg/ml G418 and stepped up to 1 mg/ml before further testing. One cell plate was stained with Crystal Violet to visualize the number of colonies and determine the colony formation efficiency. Individual cell clones from each plate were pooled and expanded for drug susceptibility testing.
(§2) The contribution of individual amino acid changes on drug resistance was assessed in replicon variants containing single amino acid mutations in NS5B in the background of the genotype 1b, BB7 adaptive replicon (Blight et al. (2000) Science 290:1972-74).
(§3) Drug susceptibility of the replicon-containing cells to various compounds was evaluated as described previously (Howe et al. (2004) Antimicrobial Agents Chem. 48:4813-21). Briefly, cells were treated with increasing concentrations of compounds in medium containing 2% FCS and no G418 for three days at 37° C. and 5% CO2. After incubation, total RNA from the replicon-containing cells was isolated. The levels of HCV, glyceraldehyde 3-phosphate dehydrogenase (GAPDH) and ribosomal (rRNA) RNAs were quantified using TAQMAN® (PE Applied Biosystems, Foster City, Calif.) reverse transcriptase PCR reactions. The amounts of HCV, 18S ribosomal, and GAPDH RNAs in each sample were estimated by comparing the number of cycles during the exponential phase of the PCR amplification with those in the corresponding standard curves. HCV RNA standards used for the construction of the standard curve were prepared by extracting the total RNA from the Clone A cells. The RNA sample was sent to National Genetics Institute to quantify HCV RNA. Total RNA extracted from Clone A cells was quantified by O.D.260 measurement and used for construction of the standard curves of rRNA and GAPDH. The concentrations of the compounds that inhibit 50% of the HCV RNA level (EC50) were determined using the MDL® LIFE SCIENCE WORKBENCH® (LSW) Data Analysis software (MDL Information Systems, San Leandro, Calif.) in Microsoft EXCEL®. The amounts of HCV or GAPDH RNAs in the samples were expressed as HCV RNA (copies) or GAPDH (ng), respectively, per μg of total RNA using rRNA as a marker for total RNA measurement.

[2] = system: 1b, BB7-M414I replicon; assay: Replicon variant 3-day assay; format: cell-based, Hepatitis C virus
Protocol: as §1, §2, §3

[3] = system: 1b, BB7-C316S replicon; assay: Replicon variant 3-day assay; format: cell-based, Hepatitis C virus
Protocol: as §1, §2, §3

[4] = system: 1b, BB7-S368F replicon; assay: Replicon variant 3-day assay; format: cell-based, Hepatitis C virus
Protocol: as §1, §2, §3

[5] = system: 1b, BB7-M414V replicon; assay: Replicon variant 3-day assay; format: cell-based, Hepatitis C virus
Protocol: as §1, §2, §3

[6] = system: recombinant genotype 1b HCV NS5B enzyme variants; assay: NS5B polymerase biochemical assay, several enzymes taken together; set-up: species or system Hepatitis C virus genotype 1b
Protocol: (§4) All NS5B enzymes were expressed and purified according to the protocol for NS5B-BB7dCT21-His as described (Howe et al. (2004) Antimicrobial Agents Chem. 48:4813-21). Briefly, expression plasmids were transformed into E. coli cells and NS5B expression was initiated by the addition of isopropyl-beta-D-thiogalactopyranoside (IPTG). After 4 to 6 hours of incubation the cells were harvested and lysed. NS5B enzymes were purified by chromatography using a nickel affinity column (Talon, B D Biosciences, Clontech Laboratories, Inc., Mountain View, Calif.)) followed by a cation exchange column (Poros H S, Applied Biosystems, Foster City, Calif.).

[7] = molecular target: T1, HCV NS5B enzyme BB7-I363V (Hepatitis C virus genotype 1b, UniProt Q9WMX2, I2782V); assay: NS5B polymerase biochemical assay
T1 construct: To prepare expression plasmid NS5B-BB7dCT21-His(1363V); His (C); made in house; host or cells: E. coli
T1 sequence (Q9WMX2 2420-2989 I2782V): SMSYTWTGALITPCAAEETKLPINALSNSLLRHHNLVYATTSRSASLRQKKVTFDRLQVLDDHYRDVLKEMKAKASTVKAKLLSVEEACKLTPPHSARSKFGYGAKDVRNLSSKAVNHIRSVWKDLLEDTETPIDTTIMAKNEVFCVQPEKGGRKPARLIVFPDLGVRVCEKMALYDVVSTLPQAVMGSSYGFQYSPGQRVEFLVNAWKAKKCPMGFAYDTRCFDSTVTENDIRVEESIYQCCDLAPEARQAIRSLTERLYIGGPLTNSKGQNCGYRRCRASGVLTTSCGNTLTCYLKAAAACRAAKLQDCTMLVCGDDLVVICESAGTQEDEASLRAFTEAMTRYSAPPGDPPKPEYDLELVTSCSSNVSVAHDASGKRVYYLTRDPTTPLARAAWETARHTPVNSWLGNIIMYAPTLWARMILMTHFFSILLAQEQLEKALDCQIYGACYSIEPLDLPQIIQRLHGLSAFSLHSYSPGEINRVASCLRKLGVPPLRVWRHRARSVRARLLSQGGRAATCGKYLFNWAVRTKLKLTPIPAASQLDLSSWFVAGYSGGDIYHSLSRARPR
Protocol: as §4

[8] = molecular target: T2, HCV NS5B enzyme BB7-M414V (Hepatitis C virus genotype 1b, UniProt Q9WMX2, M2833V); assay: NS5B polymerase biochemical assay
T2 construct: NS5B-BB7dCT21-His(M414T/V/I); His (C); made in house; host or cells: E. coli
T2 sequence (Q9WMX2 2420-2989 M2833V): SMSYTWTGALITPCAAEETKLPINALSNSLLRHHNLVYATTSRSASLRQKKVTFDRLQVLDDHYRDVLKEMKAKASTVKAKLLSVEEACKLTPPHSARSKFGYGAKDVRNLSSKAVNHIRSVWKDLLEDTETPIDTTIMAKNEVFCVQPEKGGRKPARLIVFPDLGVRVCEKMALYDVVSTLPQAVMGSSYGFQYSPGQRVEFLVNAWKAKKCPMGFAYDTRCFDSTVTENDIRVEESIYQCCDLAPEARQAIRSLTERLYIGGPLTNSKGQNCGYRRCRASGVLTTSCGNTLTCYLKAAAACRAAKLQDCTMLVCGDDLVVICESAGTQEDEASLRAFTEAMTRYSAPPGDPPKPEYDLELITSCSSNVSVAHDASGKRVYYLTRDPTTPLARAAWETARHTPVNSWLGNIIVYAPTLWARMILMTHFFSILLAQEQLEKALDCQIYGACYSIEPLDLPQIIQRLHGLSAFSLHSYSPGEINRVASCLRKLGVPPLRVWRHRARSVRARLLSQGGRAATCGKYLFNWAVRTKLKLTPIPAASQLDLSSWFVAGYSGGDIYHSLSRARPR
Protocol: as §4

[9] = system: HCV NS5B enzyme BB7-C316N; assay: NS5B polymerase biochemical assay; set-up: species or system Hepatitis C virus genotype 1b; details: BB7-C316N vs BB7 (C316)
Protocol: as §4

[10] = molecular target: T3, HCV NS5B enzyme BB7-C316F (Hepatitis C virus genotype 1b, UniProt Q9WMX2, C2735F); assay: NS5B polymerase biochemical assay
T3 construct: NS5B-BB7dCT21-His(C316F/S/Y/N); His (C); made in house; host or cells: E. coli
T3 sequence (Q9WMX2 2420-2989 C2735F): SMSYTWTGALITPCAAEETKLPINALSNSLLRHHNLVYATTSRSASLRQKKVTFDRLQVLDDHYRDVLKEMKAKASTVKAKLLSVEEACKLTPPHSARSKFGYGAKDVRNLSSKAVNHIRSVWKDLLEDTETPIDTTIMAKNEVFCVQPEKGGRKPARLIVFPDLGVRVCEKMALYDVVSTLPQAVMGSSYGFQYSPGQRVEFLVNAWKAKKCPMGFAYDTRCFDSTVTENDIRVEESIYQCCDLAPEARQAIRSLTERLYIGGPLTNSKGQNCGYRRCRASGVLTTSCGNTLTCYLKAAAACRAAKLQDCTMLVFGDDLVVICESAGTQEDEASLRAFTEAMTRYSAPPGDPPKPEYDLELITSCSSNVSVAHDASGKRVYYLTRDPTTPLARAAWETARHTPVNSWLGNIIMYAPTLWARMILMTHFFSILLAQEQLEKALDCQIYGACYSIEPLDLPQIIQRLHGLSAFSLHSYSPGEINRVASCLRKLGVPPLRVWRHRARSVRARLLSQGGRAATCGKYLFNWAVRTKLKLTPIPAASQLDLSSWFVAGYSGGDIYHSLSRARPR
Protocol: as §4

[11] = molecular target: T4, HCV NS5B enzyme BB7-C316N (Hepatitis C virus genotype 1b, UniProt Q9WMX2, C2735N); assay: NS5B polymerase biochemical assay
T4 construct: To prepare expression plasmid NS5B-BB7dCT21-His(C316N); His (C); made in house; host or cells: E. coli
T4 sequence (Q9WMX2 2420-2989 C2735N): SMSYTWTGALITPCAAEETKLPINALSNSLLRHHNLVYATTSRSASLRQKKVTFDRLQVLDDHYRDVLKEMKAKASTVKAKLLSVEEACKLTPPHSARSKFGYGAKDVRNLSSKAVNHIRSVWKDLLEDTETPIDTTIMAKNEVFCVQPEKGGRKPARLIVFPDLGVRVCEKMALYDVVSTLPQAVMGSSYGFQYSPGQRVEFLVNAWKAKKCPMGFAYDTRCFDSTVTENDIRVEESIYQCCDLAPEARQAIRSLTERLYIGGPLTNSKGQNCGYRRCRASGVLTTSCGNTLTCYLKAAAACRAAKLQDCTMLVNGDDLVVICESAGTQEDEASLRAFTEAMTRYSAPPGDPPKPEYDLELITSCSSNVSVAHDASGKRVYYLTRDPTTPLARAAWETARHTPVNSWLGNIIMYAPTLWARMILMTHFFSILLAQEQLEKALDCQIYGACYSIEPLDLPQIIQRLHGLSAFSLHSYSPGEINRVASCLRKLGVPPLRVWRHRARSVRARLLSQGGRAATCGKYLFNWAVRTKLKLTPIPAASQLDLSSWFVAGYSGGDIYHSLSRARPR
Protocol: as §4

[12] = molecular target: T5, HCV NS5B enzyme BB7-M414I (Hepatitis C virus genotype 1b, UniProt Q9WMX2, M2833I); assay: NS5B polymerase biochemical assay
T5 construct: To prepare expression plasmid NS5B-BB7dCT21-His(M414I); His (C); made in house; host or cells: E. coli
T5 sequence (Q9WMX2 2420-2989 M2833I): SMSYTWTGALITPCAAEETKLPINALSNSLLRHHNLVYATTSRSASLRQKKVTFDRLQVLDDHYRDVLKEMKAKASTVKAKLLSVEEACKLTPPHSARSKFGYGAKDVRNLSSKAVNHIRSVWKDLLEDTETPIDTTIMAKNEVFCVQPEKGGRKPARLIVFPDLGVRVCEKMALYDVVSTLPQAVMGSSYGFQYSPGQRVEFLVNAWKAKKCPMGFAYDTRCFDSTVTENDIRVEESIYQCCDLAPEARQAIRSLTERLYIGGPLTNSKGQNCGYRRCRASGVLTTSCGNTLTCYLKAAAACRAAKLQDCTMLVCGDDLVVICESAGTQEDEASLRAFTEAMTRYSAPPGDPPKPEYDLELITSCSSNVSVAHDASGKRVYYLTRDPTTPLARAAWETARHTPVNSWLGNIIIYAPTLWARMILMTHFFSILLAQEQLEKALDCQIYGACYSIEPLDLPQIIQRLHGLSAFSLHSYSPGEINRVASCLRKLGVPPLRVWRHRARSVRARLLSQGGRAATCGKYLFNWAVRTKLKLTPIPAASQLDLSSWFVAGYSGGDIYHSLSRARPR
Protocol: as §4

[13] = system: HCV NS5B enzyme BB7-M414V; assay: NS5B polymerase biochemical assay; set-up: species or system Hepatitis C virus genotype 1b; details: BB7-M414V vs BB7 (C316)
Protocol: as §4

CNC(=O)c1c(-c2ccc(F)cc2)oc2cc(N(CCO)S(C)(=O)=O)c(C3CC3)cc12 [HCV-796, 5-cyclopropyl-2-(4-fluorophenyl)-6-[(2-hydroxyethyl)(methylsulfonyl)amino]-N-methyl-1-benzofuran-3-carboxamide]
Fold Resistance ([1]; BB7-C316Y vs 1b, BB7): 166 fold | Viral Load Reduction ([1]; BB7-C316Y, 2240 nM HCV-796, 3-day assay): 0.9 ± 0.2 log | EC50 ([1]; Hepatitis C virus, 72 h, BB7-C316Y, 3-day assay, read-out: HCV RNA EC50 (nM) ± SD): 501 nM | Fold Resistance ([2]; BB7-M414I vs 1b, BB7): 8 fold | Viral Load Reduction ([2]; BB7-M414I, 2240 nM HCV-796, 3-day assay): 1.5 ± 0.2 log | EC50 ([2]; Hepatitis C virus, 72 h, BB7-M414I, 3-day assay, read-out: HCV RNA EC50 (nM) ± SD): 23 ± 3 nM | Fold Resistance ([3]; BB7-C316S vs 1b, BB7): 10 fold | Viral Load Reduction ([3]; BB7-C316S, 2240 nM HCV-796, 3-day assay): 1.3 ± 0.1 log | EC50 ([3]; Hepatitis C virus, 72 h, BB7-C316S, 3-day assay, read-out: HCV RNA EC50 (nM) ± SD): 30 nM | Fold Resistance ([4]; BB7-S368F vs 1b, BB7): 2 fold | Viral Load Reduction ([4]; BB7-S368F, 2240 nM HCV-796, 3-day assay): 1.4 ± 0.3 log | EC50 ([4]; Hepatitis C virus, 72 h, BB7-S368F, 3-day assay, read-out: HCV RNA EC50 (nM) ± SD): 5 ± 2 nM | Fold Resistance ([5]; BB7-M414V vs 1b, BB7): 3 fold | Viral Load Reduction ([5]; BB7-M414V, 2240 nM HCV-796, 3-day assay): 1.5 ± 0.1 log | EC50 ([5]; Hepatitis C virus, 72 h, BB7-M414V, 3-day assay, read-out: HCV RNA EC50 (nM) ± SD): 8 ± 1 nM | difference in drug susceptibility (in words) ([6]; M414V/I and I363V enzyme variants vs wild type enzyme): no appreciable difference in drug susceptibility | susceptibility of Asn316 enzymes compared with Cys316 enzymes (in words) ([6]; NS5B enzymes of genotype 1b isolates BK and J4, data not shown): less susceptible | IC50 ([7]; BB7-I363V enzyme): 60 ± 10 nM | Susceptibility Relative to Wild type Enzyme ([7]; BB7-I363V vs BB7 (C316)): 1.5-fold less | IC50 [8]: 28 ± 2 nM | Susceptibility Relative to Wild type Enzyme [9]: 2-fold less | IC50 [10]: 1510 ± 419 nM | IC50 [11]: 81 ± 42 nM | IC50 [12]: 24 ± 6 nM | Susceptibility Relative to Wild type Enzyme [13]: 1.4-fold more
